According to patent publication US10174067B2, “Type of cytidine derivative and application thereof” (priority 2014, dated 2019):
Marks after values point to notes of the source that are not given here.

Assays:
[1] = tested on: HCT-116 colon cancer xenografts; experiment: Tumor growth inhibition of HCT-116 colon cancer xenografts in tumor-bearing nude mice (tumor volume, TGI %, RTV, T/C %); format: in vivo, Balb/c Nude mice; details: G10-G16 groups, single IP 400 mg/kg
Method in brief: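 Nude mice inoculated with HCT-116 cells (about 3×10^7 cells/mL in serum-free medium). Tumor diameter measured three times weekly and volume computed as V=3/4π(D/2)^3. Activity expressed as TGI (%) and T/C (%) from relative tumor volume Vt/V0, with V0 taken at grouping and dosing start; P<0.05 significant.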

[2] = Method in brief: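 Female SPF Balb/c nude mice bearing subcutaneous HCT-116 xenografts (3×10^6 cells, right hind limb), grouped at 60–150 mm^3, 6 per group; vehicle ethanol/Cremophor EL/saline 5:5:90. Body weight thrice weekly; tumours excised and weighed at sacrifice; Mean±SEM, unpaired t-test, P<0.05.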
ICR mice = experiment: in vivo; details: female ICR mice; single-dose ip
Method in brief: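 Female SPF ICR mice received a single ip dose in ethanol/Cremophor EL/saline (5:5:90), with dose lowered after deaths and raised otherwise. MTD defined as dose causing no death, no >10% weight loss versus Day 0 and no significant side effects; daily weights and twice-daily clinical observation over 7-14 days.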

[3] = Day 1, G10-G16 groups, single IP 400 mg/kg, Mean±SEM
[4] = Day 2, G10-G16 groups, single IP 400 mg/kg, Mean±SEM
[5] = Day 4, G10-G16 groups, single IP 400 mg/kg, Mean±SEM
[6] = Day 7, G10-G16 groups, single IP 400 mg/kg, Mean±SEM
[7] = Day 9, G10-G16 groups, single IP 400 mg/kg, Mean±SEM
[8] = Day 11, G10-G16 groups, single IP 400 mg/kg, Mean±SEM
[9] = Day 14, G10-G16 groups, single IP 400 mg/kg, Mean±SEM
[10] = Day 16, G10-G16 groups, single IP 400 mg/kg, Mean±SEM
[11] = Day 18, G10-G16 groups, single IP 400 mg/kg, Mean±SEM
[12] = Day 21, G10-G16 groups, single IP 400 mg/kg, Mean±SEM
[13] = Day 23, G10-G16 groups, single IP 400 mg/kg, Mean±SEM
[14] = Day 25, G10-G16 groups, single IP 400 mg/kg, Mean±SEM
[15] = Day 28, G10-G16 groups, single IP 400 mg/kg, Mean±SEM
[16] = Day 30, G10-G16 groups, single IP 400 mg/kg, Mean±SEM

In the case of `CCCCOC(=O)Nc1nc(=O)n(C2OC(COC(=O)COc3nc(Cl)c(Cl)cc3Cl)C(O)C2(F)F)cc1I` (centres unmarked) [Compound G11], the “Day 0 (RTV)” value ([1]; Day 0) is reported as 1.00, the “Tumor volume, Day 0” value ([1]; Day 0, Mean±SEM) is reported as 71.46 ± 18.69 mm^3 and the “Day 1 (TGI %)” value ([1]; Day 1) is reported as 58.06%. For the same compound, the “Day 1 (RTV)” value ([1]; Day 1, Mean±SEM) was 1.00 ± 0.13, the “Tumor volume, Day 1” value ([1]; Day 1, Mean±SEM) was 75.71 ± 22.24** mm^3 and the “Day 2 (TGI %)” value ([1]; Day 2) was 58.57%. For the same compound, the “Day 2 (RTV)” value ([1]; Day 2, Mean±SEM) was 1.14 ± 0.16, the “Tumor volume, Day 2” value ([1]; Day 2, Mean±SEM) was 91.91 ± 29.38** mm^3 and the “Day 4 (TGI %)” value ([1]; Day 4) was 56.33%. The “Day 4 (RTV)” value ([1]; Day 4, Mean±SEM) was 1.56 ± 0.24, the “Tumor volume, Day 4” value ([1]; Day 4, Mean±SEM) was 129.69 ± 43.49** mm^3 and the “Day 7 (TGI %)” value ([1]; Day 7) was 53.56%. For the same compound, the “Day 7 (RTV)” value ([1]; Day 7, Mean±SEM) was 2.68 ± 0.29, the “Tumor volume, Day 7” value ([1]; Day 7, Mean±SEM) was 200.84 ± 57.86* mm^3 and the “Day 9 (TGI %)” value ([1]; Day 9) was 35.19%. For the same compound, the “Day 9 (RTV)” value ([1]; Day 9, Mean±SEM) was 5.21 ± 0.68, the “Tumor volume, Day 9” value ([1]; Day 9, Mean±SEM) was 382.62 ± 103.38 mm^3 and the “Day 11 (TGI %)” value ([1]; Day 11) was 49.22%. For the same compound, the “Day 11 (RTV)” value ([1]; Day 11, Mean±SEM) was 6.61 ± 0.62, the “Tumor volume, Day 11” value ([1]; Day 11, Mean±SEM) was 495.68 ± 140.53* mm^3 and the “Day 14 (TGI %)” value ([1]; Day 14) was 41.98%. The “Day 14 (RTV)” value ([1]; Day 14, Mean±SEM) was 12.40 ± 1.29, the “Tumor volume, Day 14” value ([1]; Day 14, Mean±SEM) was 835.57 ± 194.90* mm^3 and the “Day 16 (TGI %)” value ([1]; Day 16) was 41.43%. For the same compound, the “Day 16 (RTV)” value ([1]; Day 16, Mean±SEM) was 16.20 ± 1.72, the “Tumor volume, Day 16” value ([1]; Day 16, Mean±SEM) was 1060.78 ± 231.28* mm^3 and the “Day 18 (TGI %)” value ([1]; Day 18) was 36.63%. For the same compound, the “Day 18 (RTV)” value ([1]; Day 18, Mean±SEM) was 20.33 ± 2.96, the “Tumor volume, Day 18” value ([1]; Day 18, Mean±SEM) was 1266.27 ± 242.09* mm^3 and the “Day 21 (TGI %)” value ([1]; Day 21) was 32.98%. The “Day 21 (RTV)” value ([1]; Day 21, Mean±SEM) was 26.21 ± 3.72, the “Tumor volume, Day 21” value ([1]; Day 21, Mean±SEM) was 1638.64 ± 312.92 mm^3 and the “Day 23 (TGI %)” value ([1]; Day 23) was 28.91%. For the same compound, the “Day 23 (RTV)” value ([1]; Day 23, Mean±SEM) was 27.62 ± 4.39, the “Tumor volume, Day 23” value ([1]; Day 23, Mean±SEM) was 1678.97 ± 300.64 mm^3 and the “Day 25 (TGI %)” value ([1]; Day 25) was 28.29%. For the same compound, the “Day 25 (RTV)” value ([1]; Day 25, Mean±SEM) was 30.73 ± 4.91, the “Tumor volume, Day 25” value ([1]; Day 25, Mean±SEM) was 1851.89 ± 322.59 mm^3 and the “Day 28 (TGI %)” value ([1]; Day 28) was 20.94%. For the same compound, the “Day 28 (RTV)” value ([1]; Day 28, Mean±SEM) was 36.20 ± 6.28, the “Tumor volume, Day 28” value ([1]; Day 28, Mean±SEM) was 2126.03 ± 345.51 mm^3 and the “Day 30 (TGI %)” value ([1]; Day 30) was 39.43%. The “Day 30 (RTV)” value ([1]; Day 30, Mean±SEM) was 56.36 ± 6.99, the “Tumor volume, Day 30” value ([1]; Day 30, Mean±SEM) was 1699.56 ± 350.73 mm^3 and the “Weight change rate, Day 0” value ([2]; Day 0, G10-G16 groups, single IP 400 mg/kg) was 0.00%. For the same compound, the “Weight of mice, Day 0” value ([2]; Day 0, G10-G16 groups, single IP 400 mg/kg, Mean±SEM) was 20.48 ± 0.27 g, the “Weight change rate, Day 1” value [2, 3] was −5.41 ± 1.27 % and the “Weight of mice, Day 1” value [2, 3] was 19.38 ± 0.43 g. The “Weight change rate, Day 2” value [2, 4] was −6.03 ± 0.57 %, the “Weight of mice, Day 2” value [2, 4] was 19.25 ± 0.31 g and the “Weight change rate, Day 4” value [2, 5] was −2.00 ± 0.76%. For the same compound, the “Weight of mice, Day 4” value [2, 5] was 20.07 ± 0.18 g, the “Weight change rate, Day 7” value [2, 6] was −3.58 ± 1.49% and the “Weight of mice, Day 7” value [2, 6] was 19.73 ± 0.17 g. The “Weight change rate, Day 9” value [2, 7] was −0.18 ± 1.13%, the “Weight of mice, Day 9” value [2, 7] was 20.43 ± 0.14 g and the “Weight change rate, Day 11” value [2, 8] was 1.05 ± 1.44%. The “Weight of mice, Day 11” value [2, 8] was 20.68 ± 0.20 g, the “Weight change rate, Day 14” value [2, 9] was −1.81 ± 2.2% and the “Weight of mice, Day 14” value [2, 9] was 20.10 ± 0.40 g. The “Weight change rate, Day 16” value [2, 10] was 0.01 ± 2.83%, the “Weight of mice, Day 16” value [2, 10] was 20.47 ± 0.49 g and the “Weight change rate, Day 18” value [2, 11] was 1.66 ± 3.62%. For the same compound, the “Weight of mice, Day 18” value [2, 11] was 20.80 ± 0.65 g, the “Weight change rate, Day 21” value [2, 12] was −0.53 ± 3.44% and the “Weight of mice, Day 21” value [2, 12] was 20.35 ± 0.59 g. For the same compound, the “Day 22 Mortality” value ([2]; Day 22, single IP dose (mg/kg)) was 0%, the “Weight change rate, Day 23” value [2, 13] was −1.07 ± 3.55% and the “Weight of mice, Day 23” value [2, 13] was 20.23 ± 0.57 g. For the same compound, the “Weight change rate, Day 25” value [2, 14] was −0.06 ± 3.97%, the “Weight of mice, Day 25” value [2, 14] was 20.43 ± 0.63 g and the “Weight change rate, Day 28” value [2, 15] was −1.11 ± 3.89%. For the same compound, the “Weight of mice, Day 28” value [2, 15] was 20.22 ± 0.61 g, the “Weight change rate, Day 30” value [2, 16] was 3.01 ± 7.70% and the “Weight of mice, Day 30” value [2, 16] was 21.00 ± 1.02 g. For the same compound, the clinical symptoms ([2]; after single IP dose, compared with model control group) was “no significant differences in clinical symptoms” and the “dose that could be tolerated (maximum tolerated dose, MTD)” value (ICR mice) was 400 mg/kg.
